In patent publication US20250186490A1, “METHOD OF CHEMICALLY TREATING OR CULTIVATING MACROPHAGES AND THEIR THERAPEUTIC APPLICATIONS IN FIBROTIC DISEASES” (MAPONOS THERAPEUTICS INC., priority 2022, published 2025):

Assays:
[1] = tested on: Bone Marrow-Derived Macrophages (BMDM); assay: MCP-1 ELISA on culture supernatant of MRCi-treated macrophages cultured under hypoxia; format: cell-based, mouse; details: then hypoxia, vs untreated
Procedure: (§1) In this example, macrophages were isolated and cultivated from the source of murine bone marrow. Eight-week-old male C57/BL6 mice (The Jackson Laboratory, ME, USA) were sacrificed by cervical dislocation. The tibia and femur were separated, and the bone marrow was flushed out using ice-cold PBS solution. Bone marrow cells were then resuspended into single-cell suspension and washed with ice-cold PBS. The cells were treated with Red Blood Cell Lysis Buffer (MilliporeSigma, MA, USA). After the treatment, the cell suspension was washed with ice-cold PBS then seeded with a culture medium.
(§2) The culture medium for the BMDM used in this example includes RPMI1640 (Thermo Fisher Scientific, MA, USA) containing 10% heat-inactivated Fetal Bovine Serum (Gemini Bio, CA, USA), supplied with 100 ng/ml of Recombinant Mouse M-CSF Protein (R&D Systems, MN, USA). Fresh medium was supplied on day three and day five post isolation. On day six of the culturing process, 1 μM of Rotenone (MilliporeSigma, MA, USA) in DMSO solution was added into the culturing medium and incubated for 2 hours with the cells. Then the culture was replaced with fresh medium and was placed into a hypoxia culture chamber with 1% oxygen supply and 5% carbon dioxide at 37° C. On day seven, the cells were ready for downstream treatments. In the untreated group, only vehicle (DMSO) was added as the control. In addition to Rotenone, the following mitochondrial respiratory chain inhibitors (MRCi) were also tested following the same culturing process: Deguclin (10 μM), Piericidin A (0.1 μM), and Capsaicin (5 μM).
To evaluate the enhanced anti-fibrosis ability of the chemically-treated BMDM, ELISA assays were applied using commercially purchased testing kits. In this example, a Mouse MCP-1 ELISA Kit and a Mouse IP-10 ELISA Kit (CXCL10) (both from Abcam plc, Cambridge, UK) were used. Tests using both kits were performed according to the instructions provided by Abcam. […]

[2] = tested on: Bone Marrow-Derived Macrophages (BMDM); assay: CXCL10 (IP-10) ELISA on culture supernatant of MRCi-treated macrophages cultured under hypoxia; format: cell-based, mouse; details: then hypoxia (1% oxygen), vs untreated
Procedure: as §1
as §2, with “In addition to Rotenone, the following mitochondrial respiratory chain inhibitors (MRCi) were also tested following the same culturing process: Deguclin (10 μM), Piericidin A (0.1 μM), and Capsaicin (5 μM).” left out

Structure (SMILES): COc1cc(CNC(=O)CCCC/C=C/C(C)C)ccc1O [capsaicin, Capsaicin]
- MCP-1 level ([1]; BMDM treated with 5 μM capsaicin): reduce the MCP-1 level

Structure (SMILES): C/C=C(\C)[C@H](O)[C@H](C)/C=C(C)/C=C/C/C(C)=C/Cc1nc(OC)c(OC)c(O)c1C [Piericidin A]
- MCP-1 level ([1]; BMDM treated with 0.1 μM Piericidin A): reduce the MCP-1 level

Structure (SMILES): C=C(C)[C@H]1Cc2c(ccc3c2O[C@@H]2COc4cc(OC)c(OC)cc4[C@@H]2C3=O)O1 [rotenone, Rotenone]
- CXCL 10 level ([2]; BMDM treated with 1 μM rotenone for 2 hours): increased CXCL 10 level
- MCP-1 level ([1]; BMDM treated with 1 μM rotenone): reduce the MCP-1 level

Structure (SMILES): COc1cc2c(cc1OC)[C@@H]1C(=O)c3ccc4c(c3O[C@@H]1CO2)C=CC(C)(C)O4 [deguelin, Deguelin]
- CXCL 10 level ([2]; BMDM treated with 10 μM deguelin for 2 hours): increased CXCL 10 level
